# Data as given in article PMC10451632, “Site Mutation Improves the Expression and Antimicrobial Properties of Fungal Defense” (Antibiotics, 2023).
# “Also recorded” adds a separate entry of the source. Bridge positions count the residues as written; N and C are the ends. Peptide text beside a SMILES is read from it.
# Tests used:
# [1] = test system: Staphylococcus aureus ATCC 43300; test: microbe, parasite or virus in culture; format: cell-based
# Method: The experimental operation of the expression of the Plectasin variant in P. pastoris in well plates, shaking flasks, and 5 L level fermentation was performed as referenced in previous studies. Candidates were identified through three different levels of screening. Firstly, a large number of transformants were screened through well plates to induce expression and determined by the inhibition zone assay (against S. aureus ATCC 43300). Secondly, the transformants with obvious inhibition zones were sequenced to obtain protein sequence information, then induced expression at the shake level. The supernatant was collected and purified to obtain the target protein; the anti-Staphylococcus aureus activity of the protein was detected by a MIC assay. Finally, the codons of candidate sequences were optimized, the expression vector was reconstructed, the optimal transformers were obtained, and the high-density cultivation was performed in a 5 L fermenter. The final agent was determined by high protein yield and good activity (Figure 2).
# (§1) The MIC value of PN7 against bacteria was determined by the microtiter broth dilution method. Briefly, bacteria grown to the exponential phase were diluted into MHB; subsequently, 90 μL of bacterial suspension (10^5 CFUs/mL) was mixed with 10 μL of different concentrations of PN7 in a sterilized 96-well microtiter plate (Nunc). MIC values were recorded after incubation for 16–18 h at 37 °C based on the lowest concentrations of peptides in which no visible bacterial growth was observed.
# S. aureus CICC 10473 = test: MIC, microtiter broth dilution; format: cell-based, Staphylococcus aureus; settings: MHB, 10^5 CFUs/mL, 16–18 h at 37 °C
# Method: as §1
# P. aeruginosa CICC 21630 = test: MIC, microtiter broth dilution; format: cell-based, Pseudomonas aeruginosa; settings: MHB, 10^5 CFUs/mL, 16–18 h at 37 °C
# Method: as §1
# mouse erythrocytes = test: Hemolytic activity; format: cell-based; settings: 128 μg/mL; fresh mouse red blood cells; 0.1% Triton X-100 = 100% hemolysis; mean of three biological replicates
# Method: The hemolytic activity of PN7 was evaluated based on the amount of the released hemoglobin from erythrocyte suspensions of healthy mouse blood. Erythrocyte suspensions treated with 0.1% Triton X-100 and saline were used as 100% hemolysis and negative control, respectively.
# [2] = pH stability, MIC read-out; format: physicochemical; settings: pH from 2 to 10, buffers, 37 °C, 4 h, MIC read-out after dilution, triplicate
# Method: PN7 dissolved in physiological saline solution was prepared into mother liquor with a concentration of 1280 μg/mL and incubated at different temperatures for 1 h. PN7 was dissolved in different pH buffers at 37 °C for 4 h. After double gradient dilution, MIC assays were used to detect the change in antibacterial activity.
# [3] = Stability in simulated gastric fluid, MIC read-out; format: in vitro ADME
# Method: (§2) The stability of peptide PN7 in SGF, SIF, and 25% or 50% mouse serum was carried out as previously described. A final concentration of 1280 μg/mL PN7 was prepared and incubated at 37 °C and then diluted twice. The MIC was determined.
# [4] = Serum stability, MIC read-out; format: in vitro ADME; settings: 25% or 50% mouse serum, 1280 μg/mL PN7, 37 °C, triplicate
# Method: as §2
# S. aureus ATCC 43300 [5] = test: Post antibiotic effect (PAE); format: cell-based, Staphylococcus aureus
# From the text: The post-antibiotic effect reflects the inhibitory effect on the growth of pathogenic bacteria after short contact with drugs, which is related to the strength of the bactericidal activity of drugs. The test method of the PAE of PN7 against S. aureus ATCC 43300 refers to the descriptions in previous studies.
# S. aureus ATCC 43300 [6] = test: SEM morphological observation; format: cell-based, Staphylococcus aureus; settings: 2× MIC, 30 min
# Method: To further characterize the bactericidal effects of peptide, SEM was used to visualize the morphological changes. S. aureus ATCC 43300 cells were treated with PN7. Cells for SEM were processed as described previously.
# S. aureus ATCC 43300 [7] = test: Membrane permeability, PI staining by FACS; format: cell-based, Staphylococcus aureus; settings: 2× MIC, 10^8 CFU/mL, 37 °C
# Method: Figure 8 In vitro antimicrobial analysis of PN7. (A): Time-kill curve of PN7, Plectasin, and vancomycin against S. aureus ATCC. All experiments were performed in triplicate. (B): The PAE of 1×, 2× and 4× MIC of PN7 and vancomycin against S. aureus ATCC 43300 (the MIC values of PN7 and vancomycin against S. aureus ATCC 43300 were 8 μg/mL and 1μg/mL, respectively). All experiments were performed in triplicate. (C): The morphological influence of PN7 on S. aureus ATCC 43300 was observed by SEM. (D,E): The effects of PN7 (D) and Plectasin (E)) on membrane permeability were analyzed by FACS. The logarithmic phase S. aureus ATCC 43300 cells (10^8 CFU/mL) were incubated with or without 2× MIC peptide solutions at 37 °C at different times. All experiments were performed in triplicate. Ple stands for the Plectasin treatment group, Van stands for the vancomycin treatment group, and CK stands for the untreated group. TEXT PRINTED IN THE PICTURE: (D) PN7: 34.4% (2×; 90min); 31.2% (2×; 75min); 30.4% (2×; 60min); 19.2% (2×; 45min); 16.7% (2×; 30min); 1.94% (2×; 15min) | (E) Ple: 32.0% (2×; 90min); 27.4% (2×; 75min); 25.2% (2×; 60min); 12.8% (2×; 45min); 12.0% (2×; 30min); 2.11% (2×; 15min) DOUBTS OF THE COPYIST ABOUT THIS PICTURE: Panels D and E: the picture prints no measure for the percentages, only labels such as "2×PN7-90min: 34.4%" / Panels D and E: "CK: 0.54%" is the untreated control, not a substance, and was left out
# The fluorescent dye propidium iodide (PI; Solarbio, Beijing, China) was used to detect the effect of PN7 on the membrane permeability of Staphylococcus aureus. The test method refers to the descriptions in previous studies.
smiles,measurement,setting,value
"CC[C@H](C)[C@@H]1NC(=O)[C@H](CO)NC(=O)[C@H](CCCCN)NC(=O)[C@@H]2CSSC[C@@H](C(=O)N[C@@H](Cc3ccc(O)cc3)C(=O)O)NC(=O)[C@H](CCCCN)NC(=O)[C@@H]3CSSC[C@H](NC(=O)[C@H](CCCNC(=N)N)NC(=O)CNC(=O)[C@H](CC(=O)O)NC(=O)[C@H](CC(=O)O)NC(=O)[C@H](CCC(=O)O)NC(=O)[C@H](Cc4ccc(O)cc4)NC(=O)[C@H](Cc4c[nH]c5ccccc45)NC(=O)[C@@H]4CCCN4C(=O)CNC(=O)[C@H](CC(N)=O)NC(=O)[C@@H](NC(=O)CNC(=O)[C@H](Cc4ccccc4)NC(=O)CN)CSSC[C@H](NC(=O)[C@H](Cc4ccc(O)cc4)NC(=O)CNC(=O)CNC(=O)[C@H](CCCCN)NC(=O)[C@H](Cc4ccc(O)cc4)NC(=O)CNC(=O)[C@H](CCCCN)NC1=O)C(=O)N[C@@H](C)C(=O)N[C@@H](CCCCN)C(=O)NCC(=O)NCC(=O)N[C@@H](Cc1ccccc1)C(=O)N[C@@H](C(C)C)C(=O)N3)C(=O)N[C@@H](Cc1c[nH]cn1)C(=O)N[C@@H](CC(N)=O)C(=O)N[C@@H](Cc1c[nH]cn1)C(=O)N2 [PN7] (H-GFGCNGPWYEDDGRCHNHCKSIKGYKGGYCAKGGFVCKCY-OH; disulfide 4-30, 15-37, 19-39 (inferred); N-terminus and C-terminus assumed)",MIC,"[1]; S. aureus 43300, purified protein induced by shaking flasks",4 µg/mL
same,MIC,"[1]; microtiter broth dilution, MHB, 10^5 CFUs/mL, 16–18 h at 37 °C",8 µg/mL
same,MIC,S. aureus CICC 10473,4 µg/mL
same,MIC,P. aeruginosa CICC 21630,>128 µg/mL
same,hemolysis,mouse erythrocytes,0.19%
same,pH stability (antibacterial activity),[2],stable
same,activity after incubation with simulated gastric juice (SGF),"[3]; 1280 μg/mL PN7, 37 °C, then two-fold dilution, triplicate",conserved full activity
same,resistance to pepsin,[3]; Figure 7E,resistant to pepsin
same,serum stability,[4],strong resistance to the serum effect; also recorded: stable in serum
same,"gap of PAE, PN7 versus vancomycin",S. aureus ATCC 43300 [5]; 1× MIC,12 times
same,"gap of PAE, PN7 versus vancomycin",S. aureus ATCC 43300 [5]; 2× MIC,3.648 times
same,"gap of PAE, PN7 versus vancomycin",S. aureus ATCC 43300 [5]; 4× MIC,3.513 times
same,cell morphology by SEM,S. aureus ATCC 43300 [6],shrinkage only appears in the cell surface
same,PI-staining percentage of cells,S. aureus ATCC 43300 [7]; 30 min,16.7%
same,PI-staining percentage of cells,S. aureus ATCC 43300 [7]; 60 min,30.4%
same,PI-staining percentage of cells,S. aureus ATCC 43300 [7]; 90 min,34.4%
